Literature values in patent EP3731827B1, “ORAL PHARMACEUTICAL COMPOSITION COMPRISING POSACONAZOLE” (Sanovel Ilac Sanayi ve Ticaret A.S., priority 2017, dated 2019).
Where two headings read alike, the source gives them in different places.

In the case of CC[C@@H]([C@H](C)O)n1ncn(-c2ccc(N3CCN(c4ccc(OC[C@@H]5CO[C@@](Cn6cncn6)(c6ccc(F)cc6F)C5)cc4)CC3)cc2)c1=O [posaconazole, 4-[4-[4-[4-[[(3R,5R)-5-(2,4-difluorophenyl)-5-(1,2,4-triazol-1-ylmethyl)oxolan-3-yl]methoxy]phenyl]piperazin-1-yl]phenyl]-2-[(2S,3S)-2-hydroxypentan-3-yl]-1,2,4-triazol-3-one], the solubility (at pH 6.4 or higher) is listed as “less than 1 µg/ml” and the solubility (in the stomach) is listed as “about 0.8 mg/ml”.
